Entries after “also recorded” stand apart in the source; their conditions may differ.
Columns and labels:
[1] = system: PCNA (proliferating cell nuclear antigen); experiment: Immunostaining of organ culture kidney sections; assay type: cell-based, mouse; conditions: not shown
Excerpt: Since GMZ affects Hsp90 client proteins involved in cell proliferation, it was hypothesized that GMZ could also be inhibiting cell proliferation in the metanephric organ cultures. To test this idea, organ culture sections were immunostained with an antibody to PCNA (proliferating cell nuclear antigen), a marker of cell proliferation.

[2] = system: CFTR-mediated chloride transport; experiment: Forskolin-induced short-circuit current in ADPKD cell monolayers; assay type: cell-based, human
Procedure: To determine if the ability of GMZ to inhibit cAMP-stimulated tubule expansion was due to inhibition of CFTR-mediated chloride transport, forskolin-induced short-circuit current was measured with cyst-lining epithelial cells derived from two human ADPKD (autosomal dominant PKD) kidneys. FSK is an adenylyl cyclase agonist, which increases the levels of intracellular cAMP. The cAMP then opens the CFTR chloride channel. […] The bars in FIG. 12G show the results for the three treatments. 1 microM gamendazole applied to the apical side of the cell monolayer was effective in inhibiting greater than 40 percent of the forskolin-stimulated transepithelial chloride transport.

NKCC1 = experiment: Immunostaining of organ culture kidney sections; assay type: cell-based, mouse; conditions: 1-5 uM, cAMP-treated E15.5 organ culture kidneys, images not shown
Procedure: To also test whether GMZ can target the Hsp90 client protein NKCC1, sections of E15.5 organ culture kidneys treated with cAMP or cAMP plus GMZ were immunostained with an antibody for NKCC1 (methods in Magenheimer, et al., 2006). […] Consistent with the known localization of NKCC1 in the kidney, the immunolabeling appeared to be decreased in the metanephric mesenchyme and collecting ducts when GMZ was used at 1-5 uM.

## O=C(O)CCc1nn(Cc2ccc(Cl)cc2Cl)c2cc(C(F)(F)F)ccc12 [GMZ, 3-[1-(2,4-dichlorobenzyl)-6-trifluoromethyl-1H-indazol-3-yl]-propionic acid]
[1]
  PCNA staining: overall less staining, and fewer tubule cells staining for PCNA
[2]; Homo sapiens, 1 microM applied to the apical side, 10 microM forskolin, read-out: inhibition of the forskolin-stimulated transepithelial chloride transport
  inhibition at 1 µM: > 40%
[2]; human ADPKD cells, in the presence of benzamil
  forskolin-induced Cl-secretion (short-circuit current): almost completely block
[2]; human cyst epithelial cells (ADPKD cells)
  Concentration needed to inhibit CFTR-mediated chloride channel activity, compared with lonidamine: at much lower concentration; also recorded: effective at lower doses than was Lonidamine itself
NKCC1
  NKCC1 staining: NKCC1 staining was reduced

Source: patent US8362031B2, “Lonidamine analogues and treatment of polycystic kidney disease” (University of Kansas, priority 2004, dated 2013)
